According to patent US11000033B2, “Ketone or oxime compound, and herbicide” (NISSAN CHEMICAL CORPORATION, priority 2014, dated 2021):

Legend:
Format in all cases: in vivo
[1] = test system: Echinochloa oryzacola Vasing.; assay: Test Example 2: herbicidal activity, application during weed generation in submerged conditions (symbol A); conditions: Table 23; application herbicide amount 320 g/ha; grade 0-5 by criteria of Test Example 1
How it was run: (§1)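 Seeds sown in flooded alluvial soil (4 cm water) were grown in a 25-30° C greenhouse. At the one- to two-leaf stage, diluted emulsion of compound was applied to the water surface at a predetermined rate. Effect was scored 3 weeks later.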

corn = assay: Test Example 5: effect on crop by foliage application, plastic box (symbol c); conditions: 320 g/ha, 3 weeks after application
How it was run: (§2)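 Crop and weed seeds sown in spots in sterilized diluvial soil in plastic boxes and covered with about 1.5 cm soil. Plants raised in a greenhouse at 25° C. to 30° C. for foliar application.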

rapeseed = assay: Test Example 5: effect on crop by foliage application, plastic box (symbol g); conditions: 320 g/ha, 3 weeks after application
How it was run: as §2

Scirpus juncoides [2] = assay: Test Example 1: herbicidal activity, application before weed generation in submerged conditions (symbol B); conditions: application herbicide amount 320 g/ha
How it was run: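 Mixed weed seeds sown in alluvial soil under 4 cm of water, with rice seedlings at the 2.5-leaf stage added. Same-day treatment: emulsion diluted to a set herbicide amount onto the water. Three weeks at 25–30 °C, then graded on a six-step scale.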

Alopecurus myosuroides [3] = assay: Test Example 4: herbicidal effect by soil treatment (symbol J); conditions: for J: Alopecurus myosuroides, herbicidal effect grade: 320 g/ha
How it was run: (§3)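 Seeds were sown in sterilized diluvial soil, covered with about 1.5 cm of soil, and the soil surface was sprayed with a water-diluted emulsion of the compound at a predetermined rate. Plants grew in a greenhouse at 25° C. to 30° C.; effects were scored visually 3 weeks after application.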

[4] = test system: Echinochloa crus-galli var. crus-galli; assay: Test Example 3: herbicidal effect by foliage application, Wagner pot (symbol H); conditions: application herbicide amount 320 g/ha
How it was run: (§4)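 Plants sown in submerged alluvial soil (water depth 0.1–0.5 cm) in a 25–30 °C greenhouse and grown 14 days. An emulsion of the compound diluted in water to a set herbicide amount was sprayed uniformly on foliage. Effect on each plant scored 3 weeks after application.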

Veronica persica = assay: Test Example 4: herbicidal effect by soil treatment (symbol R); conditions: for R: Veronica persica, herbicidal effect grade: 320 g/ha
How it was run: as §3

Chenopodium album = assay: Test Example 4: herbicidal effect by soil treatment (symbol O); conditions: for O: Chenopodium album, herbicidal effect grade: 320 g/ha
How it was run: as §3

Setaria viridis = assay: Test Example 4: herbicidal effect by soil treatment (symbol G); conditions: for G: Setaria viridis, herbicidal effect grade: 320 g/ha
How it was run: as §3

Apera spica-venti [5] = assay: Test Example 5: herbicidal effect by foliage application, plastic box (symbol L); conditions: 320 g/ha, 3 weeks after application
How it was run: (§5)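 Greenhouse foliar test: seedlings at 14 days, grown 25° C. to 30° C. in sterilized diluvial soil; compound applied as an aqueous dilution of an emulsion; response read 3 weeks after spraying.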

Alopecurus myosuroides [6] = assay: Test Example 5: herbicidal effect by foliage application, plastic box (symbol J); conditions: 320 g/ha, 3 weeks after application
How it was run: as §5

Apera spica-venti [7] = assay: Test Example 4: herbicidal effect by soil treatment (symbol L); conditions: for L: Apera spica-venti, herbicidal effect grade: 320 g/ha
How it was run: as §3

Cyperus difformis = assay: Test Example 3: herbicidal effect by foliage application, Wagner pot (symbol E); conditions: application herbicide amount 320 g/ha
How it was run: as §4

Abutilon theophrasti = assay: Test Example 4: herbicidal effect by soil treatment (symbol M); conditions: for M: Abutilon theophrasti, herbicidal effect grade: 320 g/ha
How it was run: as §3

Avena fatua = assay: Test Example 4: herbicidal effect by soil treatment (symbol I); conditions: for I: Avena fatua, herbicidal effect grade: 320 g/ha
How it was run: as §3

Scirpus juncoides [8] = assay: Test Example 2: herbicidal activity, application during weed generation in submerged conditions (symbol B); conditions: Table 23; application herbicide amount 320 g/ha; grade 0-5 by criteria of Test Example 1
How it was run: as §1

[9] = application herbicide amount 320 g/ha

| SMILES | Herbicidal effect grade, A: Echinochloa oryzacola Vasing. [1] | c: corn, effect on crop (criteria 0-5) (corn) | g: rapeseed, effect on crop (criteria 0-5) (rapeseed) | Herbicidal effect grade, B: Scirpus juncoides (Scirpus juncoides [2]) | J: Alopecurus myosuroides, herbicidal effect grade (Alopecurus myosuroides [3]) | herbicidal effect on H (Echinochloa crus-galli var. crus-galli), grade 0-5 [4] | R: Veronica persica, herbicidal effect grade (Veronica persica) | O: Chenopodium album, herbicidal effect grade (Chenopodium album) | G: Setaria viridis, herbicidal effect grade (Setaria viridis) | L: Apera spica-venti, herbicidal effect (criteria 0-5) (Apera spica-venti [5]) | J: Alopecurus myosuroides, herbicidal effect (criteria 0-5) (Alopecurus myosuroides [6]) | L: Apera spica-venti, herbicidal effect grade (Apera spica-venti [7]) | herbicidal effect on E, grade 0-5 (Cyperus difformis) | M: Abutilon theophrasti, herbicidal effect grade (Abutilon theophrasti) | I: Avena fatua, herbicidal effect grade (Avena fatua) | Herbicidal effect grade, B: Scirpus juncoides (Scirpus juncoides [8]) | c: corn, effect on crop grade (corn) | g: rapeseed, effect on crop grade (rapeseed) | L: Apera spica-venti, herbicidal effect grade (Apera spica-venti [5]) | J: Alopecurus myosuroides, herbicidal effect grade (Alopecurus myosuroides [6]) | further results |
| --- | --- | --- | --- | --- | --- | --- | --- | --- | --- | --- | --- | --- | --- | --- | --- | --- | --- | --- | --- | --- | --- |
| CC(CC1CC(O)=C(c2c(C)cc(C)cc2C)C1=O)=NOCc1cccc(C(F)(F)F)c1 (stereo not shown) [1-117] | 4 (Herbicidal ratio of 70% or higher and lower than 90%) | 3 (Herbicidal ratio of 40% or higher and lower than 70%) | 5 (Herbicidal ratio of 90% or more (almost completely withered)) | 5 (Herbicidal ratio of 90% or more (almost completely withered)) | 4 (Herbicidal ratio of 70% or higher and lower than 90%) | 5 (Herbicidal ratio of 90% or more (almost completely withered)) | 0 (Herbicidal ratio of 5% or lower (almost no effect)) | 0 (Herbicidal ratio of 5% or lower (almost no effect)) | 5 (Herbicidal ratio of 90% or more (almost completely withered)) | 5 (Herbicidal ratio of 90% or more (almost completely withered)) | 5 (Herbicidal ratio of 90% or more (almost completely withered)) | 5 (Herbicidal ratio of 90% or more (almost completely withered)) | 5 (Herbicidal ratio of 90% or more (almost completely withered)) | 0 (Herbicidal ratio of 5% or lower (almost no effect)) | 0 (Herbicidal ratio of 5% or lower (almost no effect)) | 3 (Herbicidal ratio of 40% or higher and lower than 70%) | – | – | – | – | – |
| CC(CC1CC(O)=C(c2c(C)cc(C)cc2C)C1=O)=NOCC[S+](C)[O-] (stereo not shown) [1-125] | 2 (Herbicidal ratio of 20% or higher and lower than 40%) | 3 (Herbicidal ratio of 40% or higher and lower than 70%) | 3 (Herbicidal ratio of 40% or higher and lower than 70%) | 0 (Herbicidal ratio of 5% or lower (almost no effect)) | 0 (Herbicidal ratio of 5% or lower (almost no effect)) | 5 (Herbicidal ratio of 90% or more (almost completely withered)) | 0 (Herbicidal ratio of 5% or lower (almost no effect)) | 0 (Herbicidal ratio of 5% or lower (almost no effect)) | 5 (Herbicidal ratio of 90% or more (almost completely withered)) | 5 (Herbicidal ratio of 90% or more (almost completely withered)) | 5 (Herbicidal ratio of 90% or more (almost completely withered)) | 5 (Herbicidal ratio of 90% or more (almost completely withered)) | 2 (Herbicidal ratio of 20% or higher and lower than 40%) | 0 (Herbicidal ratio of 5% or lower (almost no effect)) | 3 (Herbicidal ratio of 40% or higher and lower than 70%) | 0 (Herbicidal ratio of 5% or lower (almost no effect)) | – | – | – | – | – |
| CON=C(C)CC1CC(OS(C)(=O)=O)=C(c2c(C)cc(C)cc2C)C1=O (stereo not shown) [1-006] | 5 (Herbicidal ratio of 90% or more (almost completely withered)) | – | – | 3 (Herbicidal ratio of 40% or higher and lower than 70%) | – | 5 (Herbicidal ratio of 90% or more (almost completely withered)) | – | – | – | – | – | – | 5 (Herbicidal ratio of 90% or more (almost completely withered)) | – | – | 3 (Herbicidal ratio of 40% or higher and lower than 70%) | 3 (Herbicidal ratio of 40% or higher and lower than 70%) | 3 (Herbicidal ratio of 40% or higher and lower than 70%) | 5 (Herbicidal ratio of 90% or more (almost completely withered)) | 5 (Herbicidal ratio of 90% or more (almost completely withered)) | J (Alopecurus myosuroides) herbicidal effect grade (Alopecurus myosuroides [3]; [9]): 4 (Herbicidal ratio of 70% or higher and lower than 90%); R (Veronica persica) herbicidal effect grade (Veronica persica; [9]): 0 (Herbicidal ratio of 5% or lower (almost no effect)); O (Chenopodium album) herbicidal effect grade (Chenopodium album; [9]): 0 (Herbicidal ratio of 5% or lower (almost no effect)); G (Setaria viridis) herbicidal effect grade (Setaria viridis; [9]): 4 (Herbicidal ratio of 70% or higher and lower than 90%); L (Apera spica-venti) herbicidal effect grade (Apera spica-venti [7]; [9]): 5 (Herbicidal ratio of 90% or more (almost completely withered)); M (Abutilon theophrasti) herbicidal effect grade (Abutilon theophrasti; [9]): 4 (Herbicidal ratio of 70% or higher and lower than 90%); I (Avena fatua) herbicidal effect grade (Avena fatua; [9]): 3 (Herbicidal ratio of 40% or higher and lower than 70%) |
| COCCON=C(CC1CC(O)=C(c2c(C)cc(-n3cc(Cl)cn3)cc2C)C1=O)C(C)C (stereo not shown) [9-022] | 4 (Herbicidal ratio of 70% or higher and lower than 90%) | – | – | – | – | – | – | – | – | – | – | – | – | – | – | 0 (Herbicidal ratio of 5% or lower (almost no effect)) | 2 (Herbicidal ratio of 20% or higher and lower than 40%) | 0 (Herbicidal ratio of 5% or lower (almost no effect)) | 2 (Herbicidal ratio of 20% or higher and lower than 40%) | 2 (Herbicidal ratio of 20% or higher and lower than 40%) | B (Scirpus juncoides) herbicidal effect grade (Scirpus juncoides [2]): 3 (Herbicidal ratio of 40% or higher and lower than 70%); Herbicidal effect grade, J: Alopecurus myosuroides (Alopecurus myosuroides [3]; [9]): 0 (Herbicidal ratio of 5% or lower (almost no effect)); H (Echinochloa crus-galli var. crus-galli) herbicidal effect grade ([4]; Table 24): 5 (Herbicidal ratio of 90% or more (almost completely withered)); Herbicidal effect grade, R: Veronica persica (Veronica persica; [9]): 0 (Herbicidal ratio of 5% or lower (almost no effect)); Herbicidal effect grade, O: Chenopodium album (Chenopodium album; [9]): 0 (Herbicidal ratio of 5% or lower (almost no effect)); Herbicidal effect grade, G: Setaria viridis (Setaria viridis; [9]): 5 (Herbicidal ratio of 90% or more (almost completely withered)); Herbicidal effect grade, L: Apera spica-venti (Apera spica-venti [7]; [9]): 0 (Herbicidal ratio of 5% or lower (almost no effect)); E herbicidal effect grade (Cyperus difformis; Table 24): 5 (Herbicidal ratio of 90% or more (almost completely withered)); Herbicidal effect grade, M: Abutilon theophrasti (Abutilon theophrasti; [9]): 0 (Herbicidal ratio of 5% or lower (almost no effect)); Herbicidal effect grade, I: Avena fatua (Avena fatua; [9]): 0 (Herbicidal ratio of 5% or lower (almost no effect)) |
